# Reference: patent EP0609518A1, “Optically active aminopyridine derivative and use thereof” (THE GREEN CROSS CORPORATION, priority 1992, dated 1994)
# What was measured:
# [1] = test system: male spontaneously hypertensive rat; test: Antihypertensive action (systolic pressure by tail-cuff method); assay type: in vivo; conditions: 3 mg/kg p.o., dissolved in brine, at 1 hour from the oral administration
# Procedure: The compound (hydrochloride) of the present invention obtained in Example 1 was dissolved in brine, and forcibly administered (p.o.) to male spontaneously hypertensive rat at 3 mg/kg. The systolic pressure was measured with a programmable sphygmonanometer (PS-200A, manufactured by Riken Kaihatsu, Japan) by tail-cuff method [Ohkubo H et al. Proc. Natl. Acad. Sci. USA, 87, 5153-5157 (1990)].
# rat = test: Toxicity by single administration to rat; assay type: in vivo; conditions: single administration of 450 mg/kg to rat
# Excerpt: Toxicity by single administration to rat
structure (smiles),measurement,setting,value
"Cl.N#CN=C(Nc1ccc(N)nc1)N[C@@H]1C[C@@H]2CC[C@H]1C2 [hydrochloride of (+)-N-(6-amino-3-pyridyl)-N''-cyano-N'-[(1S] [hydrochloride of (+)-N-(6-amino-3-pyridyl)-N''-cyano-N'-[(1S,2R,4R)-2-norbornyl]guanidine]",vasodepressor action,[1],33%
same,death case,rat,did not result in a death case
